Data: PubChem BioAssay AID330 (DTP/NCI, 2004)
Toxic doses and inconclusive results are not listed. The calls were made as follows: active = survival T/C of 150% or more; inactive = T/C below 125% in these data.

Tested on: P388 leukemia ip, CD2F1 mice, survival T/C
Assay: NCI In Vivo Anticancer Drug Screen. Data for tumor model P388 Leukemia (intraperitoneal) in CD2F1 (CDF1) mice
Conditions: endpoint: median survival time, higher = longer survival
In short: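 Mice carrying the transplanted tumor received test compound or vehicle. Survival was recorded in each group, and the value is the treated-group measurement divided by that of the vehicle-treated control group.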

[1] = dose: 100.0 mg/kg/injection, schedule: Q01DX009 (ip), vehicle: saline with Tween-80
[2] = dose: 200.0 mg/kg/injection, schedule: Q01DX009 (ip), vehicle: saline with Tween-80
[3] = dose: 100.0 mg/kg/injection, schedule: Q04DX003 (ip), vehicle: saline with Tween-80
[4] = dose: 200.0 mg/kg/injection, schedule: Q04DX003 (ip), vehicle: saline with Tween-80
[5] = dose: 50.0 mg/kg/injection, schedule: Q01DX009 (ip), vehicle: Klucel (hydroxypropylcellulose) (HPC)
[6] = dose: 200.0 mg/kg/injection, schedule: Q01DX009 (ip), vehicle: Klucel (hydroxypropylcellulose) (HPC)
[7] = dose: 12.5 mg/kg/injection, schedule: Q01DX009 (ip), vehicle: saline
[8] = dose: 25.0 mg/kg/injection, schedule: Q01DX009 (ip), vehicle: saline
[9] = dose: 50.0 mg/kg/injection, schedule: Q01DX009 (ip), vehicle: saline
[10] = dose: 50.0 mg/kg/injection, schedule: Q01DX005 (ip), vehicle: saline with Tween-80
[11] = dose: 100.0 mg/kg/injection, schedule: Q01DX005 (ip), vehicle: saline with Tween-80
[12] = dose: 60.0 mg/kg/injection, schedule: Q01DX005 (ip), vehicle: Klucel (hydroxypropylcellulose) (HPC)
[13] = dose: 120.0 mg/kg/injection, schedule: Q01DX005 (ip), vehicle: Klucel (hydroxypropylcellulose) (HPC)
[14] = dose: 3.12 mg/kg/injection, schedule: Q01DX005 (ip), vehicle: Klucel (hydroxypropylcellulose) (HPC)
[15] = dose: 6.25 mg/kg/injection, schedule: Q01DX005 (ip), vehicle: Klucel (hydroxypropylcellulose) (HPC)
[16] = dose: 12.5 mg/kg/injection, schedule: Q01DX005 (ip), vehicle: Klucel (hydroxypropylcellulose) (HPC)
[17] = dose: 50.0 mg/kg/injection, schedule: Q01DX005 (ip), vehicle: Klucel (hydroxypropylcellulose) (HPC)
[18] = dose: 100.0 mg/kg/injection, schedule: Q01DX005 (ip), vehicle: Klucel (hydroxypropylcellulose) (HPC)
[19] = dose: 200.0 mg/kg/injection, schedule: Q01DX005 (ip), vehicle: Klucel (hydroxypropylcellulose) (HPC)

Measured: T/C

CC(=O)OCC(=O)[C@@]1(O)CC[C@H]2[C@@H]3C[C@@H](C)C4=CC(=O)C=C[C@]4(C)[C@H]3[C@@H](O)C[C@@]21C
inactive: [1] 100 % of control | [2] 100 % of control | dose: 400.0 mg/kg/injection, schedule: Q01DX009 (ip), vehicle: saline with Tween-80 100 % of control

CC(=O)OCC(Br)C(Br)COC(C)=O (stereo not given)
inactive: [3] 100 % of control | [4] 100 % of control | dose: 400.0 mg/kg/injection, schedule: Q04DX003 (ip), vehicle: saline with Tween-80 100 % of control

CCOC(CN=Cc1cc(C)c2sc3ccccc3c2c1C)OCC
inactive: dose: 25.0 mg/kg/injection, schedule: Q01DX009 (ip), vehicle: saline with Tween-80 110 % of control | dose: 50.0 mg/kg/injection, schedule: Q01DX009 (ip), vehicle: saline with Tween-80 103 % of control | [1] 108 % of control | [2] 111 % of control

Cc1nonc1CCO
inactive: dose: 50.0 mg/kg/injection, schedule: Q01DX005 (ip), vehicle: saline 105 % of control | dose: 100.0 mg/kg/injection, schedule: Q01DX005 (ip), vehicle: saline 102 % of control | dose: 200.0 mg/kg/injection, schedule: Q01DX005 (ip), vehicle: saline 103 % of control

COc1ccc(CCN2C(=O)C(=O)N(C3CCCCC3)C2=O)cc1OC
inactive: [5] 93 % of control | dose: 100.0 mg/kg/injection, schedule: Q01DX009 (ip), vehicle: Klucel (hydroxypropylcellulose) (HPC) 95 % of control | [6] 100 % of control

COC(=O)CCN(CCC(=O)OC)Cc1ccccc1
inactive: dose: 50.0 mg/kg/injection, schedule: Q04DX003 (ip), vehicle: saline with Tween-80 101 % of control | [3] 100 % of control | [4] 100 % of control

CC(C)(C)SCC(CSC(C)(C)C)(CSC(C)(C)C)CSC(C)(C)C
inactive: dose: 1.5 mg/kg/injection, schedule: Q01DX001 (ip), vehicle: saline with Tween-80 102 % of control | dose: 3.0 mg/kg/injection, schedule: Q01DX001 (ip), vehicle: saline with Tween-80 98 % of control | dose: 6.0 mg/kg/injection, schedule: Q01DX001 (ip), vehicle: saline with Tween-80 112 % of control

CC(CCCSC(=N)N)SC(=N)N (stereo not given)
inactive: [7] 105 % of control | [8] 98 % of control | [9] 104 % of control

C1CCN(c2c3c(nc4nnnn24)CCC3)CC1
inactive: [9] 96 % of control | dose: 100.0 mg/kg/injection, schedule: Q01DX009 (ip), vehicle: saline 87 % of control | dose: 200.0 mg/kg/injection, schedule: Q01DX009 (ip), vehicle: saline 90 % of control

O=C1CN(Cc2cccc(Cl)c2)CC(=O)N2Cc3ccccc3CN12
inactive: [10] 106 % of control | [11] 98 % of control

CN(C)C1CS(=O)(=O)OC2=C1CCOc1ccccc12 (stereo not given)
inactive: [12] 97 % of control | [13] 91 % of control | dose: 240.0 mg/kg/injection, schedule: Q01DX005 (ip), vehicle: Klucel (hydroxypropylcellulose) (HPC) 89 % of control

COC(=O)c1c(C(=O)OC)c(Nc2ccccc2)c2ccccc2c1O
inactive: [14] 115 % of control | [15] 107 % of control | [16] 99 % of control

COc1ccc(OC)c(NC(=O)NC(c2ccccc2)c2ccccc2)c1
inactive: dose: 3.12 mg/kg/injection, schedule: Q01DX009 (ip), vehicle: Klucel (hydroxypropylcellulose) (HPC) 96 % of control | dose: 6.25 mg/kg/injection, schedule: Q01DX009 (ip), vehicle: Klucel (hydroxypropylcellulose) (HPC) 90 % of control | [6] 93 % of control

CCCCCCCCCCCC(O)CCCC(O)CC(O)CC(O)CC1CC=CC(=O)O1 (stereo not given)
inactive: dose: 12.5 mg/kg/injection, schedule: Q01DX009 (ip), vehicle: Klucel (hydroxypropylcellulose) (HPC) 106 % of control | dose: 25.0 mg/kg/injection, schedule: Q01DX009 (ip), vehicle: Klucel (hydroxypropylcellulose) (HPC) 103 % of control | [5] 112 % of control

NCC[Se]CC(N)C(=O)O (stereo not given)
inactive: dose: 6.25 mg/kg/injection, schedule: Q01DX009 (ip), vehicle: saline 101 % of control | [7] 100 % of control | [8] 101 % of control

COc1cccc(-c2nc(-c3ccccc3)nc(N(C)C)n2)c1O
inactive: [12] 98 % of control | [13] 92 % of control

Cc1ccc(C(=O)CC2(O)C(=O)Nc3c(Cl)cc(Cl)cc32)cc1 (stereo not given)
inactive: dose: 60.0 mg/kg/injection, schedule: Q01DX005 (ip), vehicle: saline with Tween-80 103 % of control | dose: 120.0 mg/kg/injection, schedule: Q01DX005 (ip), vehicle: saline with Tween-80 108 % of control | dose: 240.0 mg/kg/injection, schedule: Q01DX005 (ip), vehicle: saline with Tween-80 100 % of control

COc1ccc2c(C)cc(N/N=C/c3ccc([N+](=O)[O-])o3)nc2c1
inactive: [17] 100 % of control | [18] 101 % of control | [19] 90 % of control

Cc1ccc2ncccc2c1N (tested in a mixture with another compound)
inactive: dose: 6.25 mg/kg/injection, schedule: Q01DX009 (ip), vehicle: gum acacia 106 % of control | dose: 12.5 mg/kg/injection, schedule: Q01DX009 (ip), vehicle: gum acacia 113 % of control | dose: 25.0 mg/kg/injection, schedule: Q01DX009 (ip), vehicle: gum acacia 107 % of control | dose: 50.0 mg/kg/injection, schedule: Q01DX009 (ip), vehicle: gum acacia 108 % of control

O=C(O)c1c2cc(Br)ccc2nc2[nH]c(=O)[nH]c(=O)c12
inactive: dose: 50.0 mg/kg/injection, schedule: Q01DX005 (ip), vehicle: Klucel + Tween-80 104 % of control | dose: 100.0 mg/kg/injection, schedule: Q01DX005 (ip), vehicle: Klucel + Tween-80 112 % of control | dose: 200.0 mg/kg/injection, schedule: Q01DX005 (ip), vehicle: Klucel + Tween-80 111 % of control

c1ccc(CNc2ncccn2)nc1
inactive: [10] 100 % of control | [11] 96 % of control | dose: 200.0 mg/kg/injection, schedule: Q01DX005 (ip), vehicle: saline with Tween-80 100 % of control

CCC(c1ccc(OC)cc1)C(NCC(=O)N/N=C/c1ccccc1[N+](=O)[O-])c1ccc(OC)cc1 (stereo not given)
inactive: dose: 3.12 mg/kg/injection, schedule: Q01DX001 (ip), vehicle: saline with Tween-80 94 % of control | dose: 6.25 mg/kg/injection, schedule: Q01DX001 (ip), vehicle: saline with Tween-80 88 % of control | dose: 12.5 mg/kg/injection, schedule: Q01DX001 (ip), vehicle: saline with Tween-80 88 % of control | dose: 400.0 mg/kg/injection, schedule: Q01DX001 (ip), vehicle: saline with Tween-80 96 % of control

O=C(Nc1ccc(C2=NCCN2)c(O)c1)c1cccc(C(=O)Nc2ccc(C3=NCCN3)c(O)c2)c1
inactive: dose: 25.0 mg/kg/injection, schedule: Q01DX005 (ip), vehicle: Klucel (hydroxypropylcellulose) (HPC) 97 % of control | [17] 97 % of control | [18] 97 % of control | [19] 102 % of control

c1ccc(-c2ccc(NCCN3CCOCC3)nn2)cc1
inactive: [12] 100 % of control | [13] 105 % of control

[Cl][Ge]([c]1ccccc1)[c]1ccccc1.[Cl][Ge]([c]1ccccc1)[c]1ccccc1
inactive: [14] 111 % of control | [15] 116 % of control | [16] 106 % of control

CC1(C)OC2(C)CCC1C1C2N1C(=O)c1ccc([N+](=O)[O-])cc1 (stereo not given)
inactive: [17] 96 % of control | [18] 102 % of control | [19] 110 % of control

CCOC(=O)C1=C(c2ccccc2)OC(N)=C(C#N)C1c1ccccc1 (stereo not given)
inactive: [17] 107 % of control | [18] 103 % of control | [19] 101 % of control

NC(=O)CC(NC(c1ccccc1)(c1ccccc1)c1ccccc1)C(=O)ON1C(=O)CCC1=O (stereo not given)
inactive: dose: 25.0 mg/kg/injection, schedule: Q01DX001 (ip), vehicle: saline with Tween-80 104 % of control | dose: 50.0 mg/kg/injection, schedule: Q01DX001 (ip), vehicle: saline with Tween-80 100 % of control | dose: 100.0 mg/kg/injection, schedule: Q01DX001 (ip), vehicle: saline with Tween-80 100 % of control
